According to patent publication US6784153B1, “Methods of homing molecules to lung using membrane dipeptidase” (The Burnham Institute, priority 1998, dated 2004):
Entries after “also recorded” stand apart in the source; their conditions may differ.

Columns and labels:
retina = assay: in vivo homing of phage displaying peptides to retina, coinjected with control phage fdAMPLAY88; parameters: species or system rats; conditions: for enrichment in retina: injected individually with control fdAMPLAY88 phage; for enrichment in retina compared to control fdAMPLAY88 phage: rat, in vivo
Experimental: For in vivo panning of retina, two month old female Simonson Albino rats were used to provide larger tissue samples than mice. The rats were anesthetized with phenobarbital (50 mg/kg body weight), and, while under deep anesthesia, the abdominal cavity of the rats was opened and 10^10 TU of a phage library was injected into the left ventricle of the heart through the diaphragm. After 2-5 minutes of phage circulation, the eyes were removed, then washed once in 70% EtOH and once in PBS. The anterior chamber, with cornea and lens, was removed and the retina was peeled from the remaining posterior chamber. The tissue was weighed, homogenized with a syringe bulb in 1 ml of ice cold DMEM containing protease inhibitors (1 mM PMSF, 20 μg/ml aprotinin and 1 μg/ml of leupeptin; all from SIGMA; St. Louis Mo.). The tissue was washed 3 times with 1 ml of DMEM and the phage were rescued as described below.
(§1) Approximately 250 to 300 individual bacterial colonies containing phage recovered from the various organs or tissues were grown for 16 hr in 5 ml NZY/tet. In some experiments, approximately 1000 individual bacteria containing phage were picked and the phage were amplified in 2 ml of NZY/tet or the entire plate containing phage was scraped, pooled and grown in bulk and processed for injection. Where phage were cultured separately, the cultures were pooled and the phage were injected into mice or rats as described above for a second round of in vivo panning. In some experiments, a third or fourth round of panning was performed. Phage DNA was purified from individual bacterial colonies obtained and the DNA sequences encoding the peptides expressed by selected phage were determined (see Koivunen et al., supra, 1994b).
Rats injected with a cyclic CX7C (SEQ ID NO: 24) phage display library were subjected to in vivo panning and, after three rounds, the peptide sequences CSCFRDVCC (SEQ ID NO: 5) and CRDVVSVIC (SEQ ID NO: 6) were identified in retina. Because of small tissue sample size, the phage isolated could not be accurately quantitated. Thus, the selectivity of phage displaying the peptides was determined by individually amplifying the phage displaying the sequence and administering the phage to rats with a control phage fdAMPLAY88. This fd-ampicillin phage is similar to fd-tetracycline (fuse 5-based) in that it has the same infectivity.
Rats were injected with an equal amount of the CSCFRDVCC (SEQ ID NO: 5) or CRDVVSVIC (SEQ ID NO: 6) and the fdAMPLAY88 phage. Following administration, homing to retina was evaluated by comparing the number of TU of the selected phage on tetracycline plates and fdAMPLAY88 on ampicillin plates recovered from retina.

liver = assay: in vivo panning of X7 library, liver; parameters: species or system mice
Experimental: (§2) Following various in vivo panning screens, hundreds of thousands to millions of phage expressing homing peptides were recovered from the respective organ or tissue. Generally, the phage collected from a round of in vivo panning were plated on agar, about 250 to 300 clones were selected, grown in 5 ml cultures, then pooled and readministered for a subsequent round of in vivo panning (“regular method”). However, in some experiments, 1000 clones were selected, grown in 2 ml cultures, then pooled and administered for a subsequent round of screening; or the entire agar plate was scraped and all of the phage were cultured together and administered for a subsequent round of screening. The peptide inserts of various isolated phage were determined such that, of the millions of phage that homed, only a small number of sequences were identified.
Also provided are liver homing peptides. Such peptides were identified by injection of an X7 (SEQ ID NO: 29) library into mice. The peptides were isolated by the regular method (see Example II, Table 1, and Table 11, below).
(§3) Organ samples were washed 3 times with ice cold DMEM-PI containing 1% bovine serum albumin (BSA), then directly incubated with 1 ml K91-kan bacteria for 1 hr. Ten ml NZY medium containing 0.2 μg/ml tetracycline (NZY/tet) was added to the bacterial culture, the mixture was incubated in a 37° C. shaker for 1 hr, then 200 μl aliquots were plated in agar plates containing 40 μg/ml tetracycline (tet/agar).
Approximately 250 to 300 individual bacterial colonies containing phage recovered from the various organs or tissues were grown for 16 hr in 5 ml NZY/tet. In some experiments, approximately 1000 individual bacteria containing phage were picked and the phage were amplified in 2 ml of NZY/tet or the entire plate containing phage was scraped, pooled and grown in bulk and processed for injection. […] Phage DNA was purified from individual bacterial colonies obtained and the DNA sequences encoding the peptides expressed by selected phage were determined (see Koivunen et al., supra, 1994b).

murine MDP = target: T1, murine MDP (Mus musculus, UniProt P31428); assay: phage binding to COS-1 cells transfected with MDP; conditions: 5×10^6 COS-1 cells, 10^10 TU phage
T1 construct: The amplified 1.3 kb murine MDP cDNA was digested with KpnI and XbaI, and inserted into the same sites of the pcDNA3 expression vector; expressed in transfected cells; host or cells: COS-1 cells, pcDNA3 expression vector
T1 sequence (P31428 17-384): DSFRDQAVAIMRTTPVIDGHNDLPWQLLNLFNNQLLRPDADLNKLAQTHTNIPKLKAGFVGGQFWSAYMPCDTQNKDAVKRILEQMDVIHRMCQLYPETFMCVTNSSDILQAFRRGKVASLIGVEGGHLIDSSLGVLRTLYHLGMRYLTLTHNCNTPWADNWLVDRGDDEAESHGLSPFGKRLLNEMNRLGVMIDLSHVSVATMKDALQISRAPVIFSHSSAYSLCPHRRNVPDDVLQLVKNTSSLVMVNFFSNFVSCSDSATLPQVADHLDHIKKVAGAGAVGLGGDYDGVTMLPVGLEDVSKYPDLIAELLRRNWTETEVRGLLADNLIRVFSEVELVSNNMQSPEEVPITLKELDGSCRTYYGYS
Experimental: The COS-1 cell line, which is known to have low or no detectable level of MDP activity, has been used extensively to study MDP structure and function (Keynan et al., supra, 1996; Keynan et al., Biochem, J. 326:47-51 (1997)). COS-1 cells were trasfected with murine MDP and used to assay binding to SEQ ID NOS: 1 and 2 as described below.
For transfection into COS-1 cells, a murine MDP expression vector was prepared as follows. Total mouse lung RNA was isolated using Qiagen RNA purification columns (Qiagen; Santa Clarita, Calif.) and used as a template for first strand cDNA synthesis with reverse transcriptase and a mixture of random hexamers and poly-dT oligonucleotides (GIBCO/BRL; Grand Island, N.Y.). Mouse MDP cDNA (Pasqualini et al., J. Cell Biol. 130:1189-1196 (1995)) was amplified from the cDNA pool by PCR using the oligonucleotide pair: […] (SEQ ID NO: 446), which contains a KpnI adaptor, and […] (SEQ ID NO: 447), which contains an XbaI adaptor, using Taq polymerase from GIBCO/BRL. The amplified 1.3 kb murine MDP cDNA was digested with KpnI and XbaI, and inserted into the same sites of the pcDNA3 expression vector (Invitrogen; Carlsbad, Calif.) using DNA restriction enzymes and T4 DNA ligase from New England Biolabs (Beverly, Mass.). Successful cloning of the murine MDP cDNA was confirmed by DNA sequencing. Transfection of the COS-1 cells was performed with the Superfect Reagent from Qiagen as recommended by the manufacturer.
Phage binding to COS-1 cells transfected with MDP was determined as follows. Briefly, 10^7 COS-1 cells were transfected with 10 μg of either the MDP expression vector or the vector alone. After 48 hours, cells were scraped gently from the dish, washed once, and subjected to the phage binding assay or membrane dipeptidase activity assay described above. For the phage binding assay, 5×10^6 cells and 10^10 transducing units (TU) of phage input were used. For measurement of membrane dipeptidase activity, 10^6 cells were lysed in 100 μl of PBS/octylglycoside without protease inhibitors. A 10 μl aliquot of the extract was used to measure MDP activity.

lung = assay: in vivo homing of phage displaying peptides to lung; parameters: species or system mice
Experimental: For lung and pancreas, a mixture of phage libraries containing 10^10 TU was diluted in 200 μl DMEM and injected into the tail vein of anesthetized BALB/c mice (2 month old; Harlan Sprague Dawley; San Diego Calif.); AVERTIN (0.017 ml/g) was used as anesthetic (Pasqualini and Ruoslahti, supra, 1996). After 1-4 minutes, mice were snap frozen in liquid nitrogen or, after about 5 minutes of phage circulation, the mice were perfused through the heart with 5-10 ml of DMEM (SIGMA; St. Louis Mo.). To recover the phage, the organs from the perfused mice or partially thawed organs from snap frozen mice were collected and weighed, then were homogenized in 1 ml DMEM-PI (DMEM containing protease inhibitors (PI); phenylmethyl sulfonyl fluoride (PMSF; 1 mM), aprotinin (20 μg/ml), leupeptin (1 μg/ml)).
as §3, §1
After two or three rounds of in vivo panning of mice injected with a cyclic CX3CX3CX3C (SEQ ID NO: 25) or a cyclic CX6C (SEQ ID NO: 26) phage display library, four peptides that homed to lung were identified.
To determine the specificity of lung homing of the individual peptides identified, phage displaying the peptides were amplified individually, diluted to the same input titer and administered to mice. Following administration, control kidney and brain organ was removed and the number of TU of phage in lung, kidney and brain was determined. The results shown in FIG. 2 reveal that 10× and 35× more phage having the peptide sequence CGFECVRQCPERC (SEQ ID NO: 1; GFE-1) bound to lung than to kidney and brain, respectively. […] The lung homing peptides CGFECVRQCPERC (SEQ ID NO: 1; GFE-1), CGFELETC (SEQ ID NO: 2; GFE-2), CTLRDRNC (SEQ ID NO: 15) and CIGEVEVC (SEQ ID NO: 16) are enriched in lung at 35×, 9×, 6× and 5×, respectively, over unselected phage (see FIG. 2).

adrenal gland = assay: in vivo panning of X7 library, adrenal gland; parameters: species or system mice
Experimental: as §2
The invention also provides adrenal gland homing peptides such as LMLPRAD (SEQ ID NO: 27) and LPRYLLS (SEQ ID NO: 28), which share a LPR motif (see Table 11), or the peptides R(Y/F)LLAGG (SEQ ID NO: 404) and RYPLAGG (SEQ ID NO: 389), which share the motif LAGG (SEQ ID NO: 430; see Table 10). The exemplified adrenal gland homing peptides were identified by injection of an X7 (SEQ ID NO: 29) library into mice. The peptides were isolated by the regular method.
as §3
Approximately 250 to 300 individual bacterial colonies containing phage recovered from the various organs or tissues were grown for 16 hr in 5 ml NZY/tet. […] Phage DNA was purified from individual bacterial colonies obtained and the DNA sequences encoding the peptides expressed by selected phage were determined (see Koivunen et al., supra, 1994b).

[1] = individually amplified phage, FIG. 2

Substance: CSCFRDVCC [retina homing peptide]
- enrichment in retina (retina): 3 fold
- enrichment in retina compared to control fdAMPLAY88 phage (retina): 3 ×

Substance: VKSVCRT [peptide from phage recovered from liver]
- % OF MOTIF AMONG ALL CLONES (liver): 11%

Substance: SRRFVGG [peptide from phage recovered from liver]
- % OF MOTIF AMONG ALL CLONES (liver): 6%

Substance: CRDVVSVIC [retina homing peptide]
- enrichment in retina (retina): 2 fold
- enrichment in retina compared to control fdAMPLAY88 phage (retina): 2 ×

Substance: CGFELETC [lung homing peptide]
- phage bound to MDP transfected cells than to mock transfected cells (murine MDP): also bound MDP transfected cells
- % OF MOTIF AMONG ALL CLONES (lung; LUNG): 5%
- LUNG/BRAIN RATIO (lung; LUNG section): 9
- homing of lung homing phage to control kidney or brain (lung; control organs): few phage detected in kidney or brain; also recorded: no selective homing to kidney or brain was detected
- enriched in lung over unselected phage (lung; [1]): 9 ×
- phage bound to lung than to brain (lung; [1]): 20 ×
- phage bound to lung than to kidney (lung; [1]): 12 ×
- enrichment in lung as compared to unselected phage (lung; mouse, in vivo): 9 fold

Substance: WRQNMPL [peptide from phage recovered from liver]
- % OF MOTIF AMONG ALL CLONES (liver): 6%

Substance: LMLPRAD [peptide from phage recovered from adrenal gland]
- % OF MOTIF AMONG ALL CLONES (adrenal gland; ADRENAL GLAND): 11%
- adrenal gland/brain homing ratio (adrenal gland; ADRENAL GLAND section, adrenal gland as compared to brain): 50
- enrichment in adrenal gland as compared to brain (adrenal gland; mouse, in vivo): 50 fold
